Measurements taken from US7049340B1, “Neuroprotective and retinoprotective ophthalmologic drugs” (priority 1999, dated 2006).
Like-named read-outs stand apart in the source and are kept apart here.

Columns and labels:
[1] = test system: treated patients; test: Visual function in treated patients, enalaprilat used instead of ramipril; format: in vivo, human; conditions: comparison enalaprilat vs ramiprilat
Text: It should be remembered that the physico-chemical indications described above originate from the article by Vasmant et al., loc. cit.

[2] = target: T1, rabbit converting enzyme (Oryctolagus cuniculus, UniProt P12822); conditions: cited from earlier work
T1 construct: host or cells: rabbit lung (only from the title of the cited Shapiro thesis)
T1 sequence (P12822 34-1310): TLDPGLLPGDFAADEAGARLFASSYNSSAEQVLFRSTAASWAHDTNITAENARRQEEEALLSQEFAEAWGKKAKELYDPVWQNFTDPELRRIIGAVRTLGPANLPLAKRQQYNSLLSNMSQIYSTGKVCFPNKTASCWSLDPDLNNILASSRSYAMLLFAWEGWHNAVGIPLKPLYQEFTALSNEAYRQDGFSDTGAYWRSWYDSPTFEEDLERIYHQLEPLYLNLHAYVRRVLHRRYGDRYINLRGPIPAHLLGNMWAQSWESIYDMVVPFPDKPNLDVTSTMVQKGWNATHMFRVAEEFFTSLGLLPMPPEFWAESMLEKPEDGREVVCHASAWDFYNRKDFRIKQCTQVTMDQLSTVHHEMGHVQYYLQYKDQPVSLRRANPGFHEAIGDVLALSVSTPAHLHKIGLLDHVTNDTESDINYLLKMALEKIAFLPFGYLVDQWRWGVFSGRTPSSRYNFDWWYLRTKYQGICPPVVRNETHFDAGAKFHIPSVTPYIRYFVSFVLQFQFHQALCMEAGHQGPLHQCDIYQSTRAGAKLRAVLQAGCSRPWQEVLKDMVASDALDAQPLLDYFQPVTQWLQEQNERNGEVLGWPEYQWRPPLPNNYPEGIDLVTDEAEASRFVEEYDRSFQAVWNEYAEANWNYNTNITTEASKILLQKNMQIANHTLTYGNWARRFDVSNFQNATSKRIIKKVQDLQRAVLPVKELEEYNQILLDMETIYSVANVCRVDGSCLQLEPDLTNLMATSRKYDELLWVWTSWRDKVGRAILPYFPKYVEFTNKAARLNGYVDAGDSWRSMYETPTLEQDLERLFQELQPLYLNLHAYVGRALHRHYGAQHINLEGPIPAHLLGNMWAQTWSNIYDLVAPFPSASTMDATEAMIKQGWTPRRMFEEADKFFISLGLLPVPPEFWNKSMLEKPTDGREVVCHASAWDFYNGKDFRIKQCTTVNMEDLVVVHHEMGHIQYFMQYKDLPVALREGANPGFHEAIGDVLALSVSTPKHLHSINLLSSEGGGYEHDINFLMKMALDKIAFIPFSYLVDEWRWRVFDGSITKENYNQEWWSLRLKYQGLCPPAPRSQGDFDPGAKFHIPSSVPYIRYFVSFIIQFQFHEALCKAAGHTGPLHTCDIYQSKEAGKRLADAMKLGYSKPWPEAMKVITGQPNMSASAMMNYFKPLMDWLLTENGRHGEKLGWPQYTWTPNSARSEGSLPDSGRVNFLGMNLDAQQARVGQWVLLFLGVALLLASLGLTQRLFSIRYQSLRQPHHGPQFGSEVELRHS

[3] = test system: healthy subject; test: General arterial pressure at doses that improve field of vision; format: in vivo, human; conditions: in vivo
Text: Effective doses for producing effects in the ophtalmologic field are desirably lower than doses that would induce general arterial hypotension in a subject with normal pressure. Clearly, the doses that can be used can be higher in subjects with hypertension, although this is not necessary, since the desired effect is that obtained in the ophtalmologic field.

[4] = target: T1, rabbit converting enzyme; test: In vitro inhibition of rabbit converting enzyme (Bünning and Shapiro methods); format: biochemical
Text: Doubtless, such drugs intervene in the CEI action mechanism, in that they act by preventing the transformation of angiotensin I to angiotensin II (vasoconstrictor) and the degradation of bradykinins (vasodilators). These CEIs thus cause vasodilation, which is exerted on arteries and on veins. Thus, they are mixed vasodilators. It should be remembered that the mechanism for the formation of the bond that can be formed between the inhibitor and the enzyme normally occurs in two phases, the first consisting of the formation of an inhibitor-enzyme complex by a competitive bond, which involves a reaction governed by a constant K1, and the second, consisting of a slow isomerisation of the inhibitor-enzyme complex, itself also governed by a reversible rate constant for this reaction, k4.
Comparison with captopril and enalaprilat” in Drug Research 1984; 34:1406–1410, and the doctoral thesis by Shapiro R. (Ph.D. Thesis, Harvard University Cambridge, Mass., 1983 “Activation and inactivation of rabbit pulmonary angiotensin converting enzyme”.

| effect on arterial pressure of doses that improve field of vision [3] | stability of enzyme complex relative to enalaprilat ([4]; from k4) | Ki relative to enalaprilat ([4]; printed as 'higher than with enalaprilat') [times] | Structure (SMILES) | improvement in visual function in treated patients [1] | constant k4 for the reversible isomerisation of the enzyme-inhibitor complex ([2]; 50 mM/l Hepes, 300 mmol/l NaCl, 1 micromol/l ZnCl2, pH 7.5) | Ki ([2]; in vitro, 50 mM/l Hepes, 300 mmol/l NaCl, 1 micromol/l ZnCl2, pH 7.5, read-out: equilibrium inhibition constant K) [nM] | Ki ([2]; unit inferred, read-out: constant Ki) [nM] | constant k4 ([2]; unit not given) |
| --- | --- | --- | --- | --- | --- | --- | --- | --- |
| – | – | – | C[C@H](N[C@@H](CCc1ccccc1)C(=O)O)C(=O)N1CCC[C@H]1C(=O)O [enalaprilat] | moderate improvement | 1.1×10^−4 S1 | 0.05 | – | – |
| do not cause arterial hypertension | six times more stable | 7 | C[C@H](N[C@@H](CCc1ccccc1)C(=O)O)C(=O)N1[C@H](C(=O)O)C[C@@H]2CCC[C@@H]21 [ramiprilat] | incomparably better | – | – | 0.007 | 1.8×10^−5 |
